The source of these data is ChEMBL document CHEMBL1151560, “Nonpeptide glycoprotein IIb/IIIa inhibitors: 18. Indole alpha-sulfonamide acids are potent inhibitors of platelet aggregation” (Bioorg Med Chem Lett, 1997).

In data set [1] the target is T1, Albumin (Homo sapiens, UniProt P02768). The data set can be described thus: Protein Binding Assay measures the ability of a compound to bind to human albumin in pH 7.4 buffer.
The next data set is filed under the species Homo sapiens. Briefly: Inhibition of ADP-induced platelet aggregation in human gel-filtered platelets. Type of data set: functional.
The target of data set [2] is Integrin alpha-IIb/beta-3 (Homo sapiens) (UniProt P05106+P08514). Briefly: Evaluated for competitive binding against fibrinogen receptor antagonist [125I]-L-692,884 to purified alpha IIb beta-3 integrin activated by coating onto yttrium silicate Scintillation Proximity Assay Fluomicrospheres (SPA-A assay). Type of data set: protein-complex assay. For orientation: In a scintillation proximity assay essentially only radioactivity close to the scintillant gives light.

Data set [3] deals with T1, Albumin. Briefly: Protein Binding Assay measures the ability of a compound to bind to human albumin in pH 7.4 buffer.; not soluble.

T1 sequence (P02768 whole entry): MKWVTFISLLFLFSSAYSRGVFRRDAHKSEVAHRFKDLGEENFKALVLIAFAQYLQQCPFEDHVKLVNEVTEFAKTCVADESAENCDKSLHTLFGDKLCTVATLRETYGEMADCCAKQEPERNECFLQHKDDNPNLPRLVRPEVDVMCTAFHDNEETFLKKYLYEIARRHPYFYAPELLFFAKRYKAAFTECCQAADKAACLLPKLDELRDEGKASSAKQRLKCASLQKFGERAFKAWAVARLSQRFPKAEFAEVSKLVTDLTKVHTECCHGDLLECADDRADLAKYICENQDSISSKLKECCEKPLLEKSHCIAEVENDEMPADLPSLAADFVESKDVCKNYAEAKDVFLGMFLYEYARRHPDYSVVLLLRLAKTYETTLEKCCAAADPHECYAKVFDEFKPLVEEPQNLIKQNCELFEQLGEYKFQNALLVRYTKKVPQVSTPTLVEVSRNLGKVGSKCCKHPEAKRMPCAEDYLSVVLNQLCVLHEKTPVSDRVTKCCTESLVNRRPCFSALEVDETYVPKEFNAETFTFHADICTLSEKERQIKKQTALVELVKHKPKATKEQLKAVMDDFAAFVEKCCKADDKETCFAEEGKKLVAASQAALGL

Broadly, the IC50 is the concentration that inhibits the measured activity by half. Compound `O=C(O)CC(NC(=O)c1cc2cc(OCC3CCNCC3)ccc2[nH]1)c1cccnc1` (stereo not given) returned a Binding on Albumin [1] of 47%. Further, the IC50 in the data set filed under Homo sapiens came out at 810 nM.

On to `O=C(NC[C@H](NS(=O)(=O)c1ccccc1)C(=O)O)c1cc2ccc(OCC3CCNCC3)cc2[nH]1`, for which, at Albumin [1], the Binding was found to be 57%. This compound also had an IC50 in the data set listed under Homo sapiens of 15 nM. The ED50 in data set [2] amounted to 0.49 nM.

Regarding `O=C(NC[C@H](NS(=O)(=O)c1ccccc1)C(=O)O)c1cc2cc(OCC3CCNCC3)ccc2n1Cc1ccccc1`, the Binding result at Albumin [3] is “Insoluble”. This compound also yielded an IC50 in the data set listed under Homo sapiens of 150 nM.

For the compound `O=C(NC[C@H](NS(=O)(=O)c1ccccc1)C(=O)O)c1cc2cc(OCc3ccncc3)ccc2[nH]1`, the Binding on Albumin [1] was 99%. Besides, the IC50 in the data set listed under Homo sapiens turned out to be 280 nM. The compound further returned an ED50 in data set [2] of 0.25 nM.

`Cn1c(C(=O)NC[C@H](NS(=O)(=O)c2ccccc2)C(=O)O)cc2cc(OCC3CCNCC3)ccc21`: the Binding at Albumin [1] is 94%. Besides, half-maximal inhibition in the data set listed under Homo sapiens (IC50) was put at 15 nM.

In the data set listed under Homo sapiens, `O=C(NC[C@H](NS(=O)(=O)c1cccnc1)C(=O)O)c1cc2cc(OCC3CCNCC3)ccc2[nH]1` gave an IC50 of 12 nM. The same compound gave an ED50 in data set [2] of 0.07 nM.

For `O=C(O)CCNC(=O)c1cc2cc(OCC3CCNCC3)ccc2[nH]1`, the Binding at Albumin [1] is listed as 52%. Moreover, the IC50 in the data set filed under Homo sapiens is 1000 nM. Further, the ED50 in data set [2] came out at 170 nM.

As to `Nc1cc(COc2ccc3[nH]c(C(=O)NC[C@H](NS(=O)(=O)c4ccccc4)C(=O)O)cc3c2)ccn1`, the Binding at Albumin [1] was 99%. The same compound displayed an IC50 in the data set listed under Homo sapiens of 45 nM. This compound gave an ED50 in data set [2] of 0.07 nM.

Regarding `O=C(NC[C@H](NS(=O)(=O)c1ccccc1)C(=O)O)c1cc2cc(OCCCc3c[nH]cn3)ccc2[nH]1`, at Albumin [1], the Binding turned out to be 98%. Besides, the half-inhibitory concentration (IC50) in the data set filed under Homo sapiens worked out at 100 nM. Further, in data set [2], the ED50 is 2 nM.

`O=C(NC[C@H](NS(=O)(=O)c1ccccc1)C(=O)O)c1cc2cc(OCCn3ccnc3)ccc2[nH]1` yielded a Binding at Albumin [1] of 98%. In the data set filed under Homo sapiens, this compound displayed an IC50 of 45 nM. This compound displayed an ED50 in data set [2] of 0.28 nM.

For the compound `CC1(C)C2CCC1(CS(=O)(=O)N[C@@H](CNC(=O)c1cc3cc(OCC4CCNCC4)ccc3[nH]1)C(=O)O)C(=O)C2` (stereo not given in full), at Albumin [1], the Binding was 63%. This compound came in with an IC50 in the data set filed under Homo sapiens of 17 nM. For the same compound, the ED50 in data set [2] came to 0.04 nM.

In turn, `O=C(NC[C@H](NS(=O)(=O)c1ccccc1)C(=O)O)c1cc2cc(OCCC3CCNCC3)ccc2[nH]1` registered a Binding on Albumin [1] of 76%. The compound further registered a half-inhibitory concentration (IC50) in the data set listed under Homo sapiens of 8 nM. The compound also came in with an ED50 in data set [2] of 0.056 nM.

As to `O=C(NC[C@H](NS(=O)(=O)c1ccccc1)C(=O)O)c1cc2cc(OCCN3CCNCC3)ccc2[nH]1`, the Binding on Albumin [1] stood at 57%. Also, the concentration for half-maximal inhibition (IC50) in the data set listed under Homo sapiens is 12 nM. In addition, the ED50 in data set [2] is 0.13 nM.

For the compound `Cc1ccc(S(=O)(=O)N[C@@H](CNC(=O)c2cc3cc(OCC4CCNCC4)ccc3[nH]2)C(=O)O)cc1`, at Albumin [1], the Binding is reported as 85%. The same compound gave an IC50 in the data set listed under Homo sapiens of 6 nM. The compound further registered an ED50 in data set [2] of 0.06 nM.

Turning to `O=C(NC[C@H](NS(=O)(=O)c1ccccc1)C(=O)O)c1cc2cc(OCC3CCNCC3)ccc2[nH]1`, on Albumin [1], the Binding worked out at 66%. Besides, the concentration for half-maximal inhibition (IC50) in the data set listed under Homo sapiens was found to be 13 nM. The compound also came in with an ED50 in data set [2] of 0.099 nM.

`O=C(Cc1c[nH]c2ccc(OCC3CCNCC3)cc12)NC[C@H](NS(=O)(=O)c1ccccc1)C(=O)O`: on Albumin [3], the Binding entry is “Insoluble”. For the same compound, in the data set listed under Homo sapiens, the half-inhibitory concentration (IC50) amounted to 5700 nM.

On to `Cn1c(C(=O)NC[C@H](NS(=O)(=O)c2ccccc2)C(=O)O)cc2cc(OCCC3CCNCC3)ccc21`, for which the Binding at Albumin [1] stood at 94%. The compound further registered an IC50 in the data set listed under Homo sapiens of 21 nM.
